Test results taken from US20150087627A1, “COMBINATION OF KINASE INHIBITORS AND USES THEREOF” (Intellikine LLC, priority 2011, published 2015).
Where a name gives a salt, the structure may show the parent alone. Read-outs that look alike come from different tables or passages of the source.

Columns and labels:
[1] = clinical use of the marketed drug; cited from earlier work
mTOR = molecular target: T1, mTOR (Homo sapiens, UniProt P42345); experiment: mTOR kinase inhibition assay (radiometric or LanthaScreen TR-FRET); type: biochemical; conditions: read-out: mTORC IC50
T1 construct: purchased Invitrogen
Procedure: The cross-activity or lack thereof of one or more compounds of the present invention against mTor can be measured according to any procedures known in the art or methods disclosed below.
The compounds described herein can be tested against recombinant mTOR (Invitrogen) in an assay containing 50 mM HEPES, pH 7.5, 1 mM EGTA, 10 mM MgCl2, 2.5 mM, 0.01% Tween, 10 μM ATP (2.5 μCi of μ-32P-ATP), and 3 μg/mL BSA. Rat recombinant PHAS-1/4EBP1 (Calbiochem; 2 mg/mL) is used as a substrate. Reactions are terminated by spotting onto nitrocellulose, which is washed with 1M NaCl/1% phosphoric acid (approximately 6 times, 5-10 minutes each). Sheets are dried and the transferred radioactivity quantitated by phosphorimaging.
For instance, one can use Invitrogen's LanthaScreen™ Kinase assay to test the inhibitors of mTOR disclosed herein. This assay is a time resolved FRET platform that measures the phosphorylation of GFP labeled 4EBP1 by mTOR kinase. The kinase reaction is performed in a white 384 well microtiter plate. The total reaction volume is 20 ul per well and the reaction buffer composition is 50 mM HEPES pH7.5, 0.01% Polysorbate 20, 1 mM EGTA, 10 mM MnCl2, and 2 mM DTT. In the first step, each well receives 2 ul of test compound in 20% dimethylsulphoxide resulting in a 2% DMSO final concentration. […] The plate is sealed and incubated for 1 hour at room temperature. […] The plate is sealed, incubated for 1 hour at room temperature, and then read on a plate reader set up for LanthaScreen™ TR-FRET. Data is analyzed and IC50s are generated using GraphPad Prism 5.

PI3K δ = molecular target: T2, PI3K δ (Homo sapiens, UniProt O00329); experiment: PI 3-Kinase (human) HTRF assay, PI3K δ; type: biochemical; conditions: read-out: PI3K δ IC50
T2 construct: purchased Upstate / Millipore Corporation

PI3K β (p110β/p85α) = molecular target: T3, PI3K β (p110β/p85α) (Homo sapiens, UniProt P42338); experiment: PI 3-Kinase (human) HTRF assay, PI3K β; type: biochemical; conditions: read-out: PI3K β IC50
T3 construct: purchased Upstate / Millipore Corporation

PI3K γ (p110γ) = molecular target: T4, PI3K γ (p110γ) (Homo sapiens, UniProt P48736); experiment: PI 3-Kinase (human) HTRF assay, PI3K γ; type: biochemical; conditions: read-out: PI3K γ IC50
T4 construct: purchased Upstate / Millipore Corporation

PI3K α (p110α/p85α) = molecular target: T5, PI3K α (p110α/p85α) (Homo sapiens, UniProt P42336); experiment: PI 3-Kinase (human) HTRF assay, PI3K α; type: biochemical; conditions: read-out: PI3K α IC50
T5 construct: purchased Upstate / Millipore Corporation

T1 sequence (P42345 1360-2549 limits assumed): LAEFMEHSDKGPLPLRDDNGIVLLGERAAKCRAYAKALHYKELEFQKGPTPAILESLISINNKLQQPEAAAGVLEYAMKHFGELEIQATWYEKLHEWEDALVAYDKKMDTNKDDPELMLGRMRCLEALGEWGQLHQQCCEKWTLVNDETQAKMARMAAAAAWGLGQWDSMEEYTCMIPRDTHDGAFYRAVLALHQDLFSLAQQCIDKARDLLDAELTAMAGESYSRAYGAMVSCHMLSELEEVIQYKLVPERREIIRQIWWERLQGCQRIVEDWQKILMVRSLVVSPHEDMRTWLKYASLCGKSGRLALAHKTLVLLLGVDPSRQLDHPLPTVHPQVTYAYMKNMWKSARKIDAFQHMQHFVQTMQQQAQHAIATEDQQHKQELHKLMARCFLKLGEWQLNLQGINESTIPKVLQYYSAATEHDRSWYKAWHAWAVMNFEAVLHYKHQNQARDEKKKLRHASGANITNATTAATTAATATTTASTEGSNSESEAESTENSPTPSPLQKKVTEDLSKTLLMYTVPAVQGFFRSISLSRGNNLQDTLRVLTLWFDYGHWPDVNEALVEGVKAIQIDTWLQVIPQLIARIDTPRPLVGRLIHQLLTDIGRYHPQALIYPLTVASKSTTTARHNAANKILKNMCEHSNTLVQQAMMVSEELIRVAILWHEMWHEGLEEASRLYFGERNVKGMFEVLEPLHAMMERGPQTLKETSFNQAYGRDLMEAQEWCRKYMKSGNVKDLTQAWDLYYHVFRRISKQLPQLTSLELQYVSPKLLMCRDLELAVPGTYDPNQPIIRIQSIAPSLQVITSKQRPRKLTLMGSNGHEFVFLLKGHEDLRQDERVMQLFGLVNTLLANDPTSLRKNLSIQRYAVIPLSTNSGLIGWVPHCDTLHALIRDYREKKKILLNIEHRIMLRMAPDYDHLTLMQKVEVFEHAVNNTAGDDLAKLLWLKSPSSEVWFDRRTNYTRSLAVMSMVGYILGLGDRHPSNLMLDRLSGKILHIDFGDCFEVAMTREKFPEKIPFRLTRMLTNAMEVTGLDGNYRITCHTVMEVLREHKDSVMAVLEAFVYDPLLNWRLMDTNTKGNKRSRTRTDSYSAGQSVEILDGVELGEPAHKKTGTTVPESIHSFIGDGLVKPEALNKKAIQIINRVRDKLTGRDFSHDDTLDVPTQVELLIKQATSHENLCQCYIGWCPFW
T2 sequence (O00329 whole entry): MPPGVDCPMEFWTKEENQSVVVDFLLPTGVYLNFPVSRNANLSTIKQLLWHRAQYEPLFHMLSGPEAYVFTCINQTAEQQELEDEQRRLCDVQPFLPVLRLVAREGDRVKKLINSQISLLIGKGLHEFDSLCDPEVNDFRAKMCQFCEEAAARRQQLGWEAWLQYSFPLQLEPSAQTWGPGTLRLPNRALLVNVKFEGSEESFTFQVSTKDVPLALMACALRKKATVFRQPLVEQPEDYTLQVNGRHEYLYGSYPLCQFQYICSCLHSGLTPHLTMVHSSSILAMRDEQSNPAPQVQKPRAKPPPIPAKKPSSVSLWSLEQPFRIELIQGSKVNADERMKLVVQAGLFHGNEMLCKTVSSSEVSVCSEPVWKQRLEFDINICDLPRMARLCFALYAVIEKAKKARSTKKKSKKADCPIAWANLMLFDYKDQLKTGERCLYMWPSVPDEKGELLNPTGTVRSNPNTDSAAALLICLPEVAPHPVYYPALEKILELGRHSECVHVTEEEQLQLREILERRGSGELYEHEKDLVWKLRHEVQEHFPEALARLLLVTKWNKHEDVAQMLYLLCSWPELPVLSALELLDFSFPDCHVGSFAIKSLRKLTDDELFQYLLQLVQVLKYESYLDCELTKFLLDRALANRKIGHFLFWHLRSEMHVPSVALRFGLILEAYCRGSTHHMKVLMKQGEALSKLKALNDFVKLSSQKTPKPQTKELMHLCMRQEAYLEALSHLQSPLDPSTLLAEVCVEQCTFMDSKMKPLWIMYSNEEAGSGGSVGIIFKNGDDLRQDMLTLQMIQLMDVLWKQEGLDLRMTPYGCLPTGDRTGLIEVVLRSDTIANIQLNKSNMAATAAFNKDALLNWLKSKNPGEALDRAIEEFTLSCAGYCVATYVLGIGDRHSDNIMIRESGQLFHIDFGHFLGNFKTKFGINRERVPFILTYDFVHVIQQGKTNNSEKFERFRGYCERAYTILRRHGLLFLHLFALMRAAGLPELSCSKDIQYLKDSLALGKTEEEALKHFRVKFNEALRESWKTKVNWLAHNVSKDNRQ
T2 sequence (P27986 whole entry partner): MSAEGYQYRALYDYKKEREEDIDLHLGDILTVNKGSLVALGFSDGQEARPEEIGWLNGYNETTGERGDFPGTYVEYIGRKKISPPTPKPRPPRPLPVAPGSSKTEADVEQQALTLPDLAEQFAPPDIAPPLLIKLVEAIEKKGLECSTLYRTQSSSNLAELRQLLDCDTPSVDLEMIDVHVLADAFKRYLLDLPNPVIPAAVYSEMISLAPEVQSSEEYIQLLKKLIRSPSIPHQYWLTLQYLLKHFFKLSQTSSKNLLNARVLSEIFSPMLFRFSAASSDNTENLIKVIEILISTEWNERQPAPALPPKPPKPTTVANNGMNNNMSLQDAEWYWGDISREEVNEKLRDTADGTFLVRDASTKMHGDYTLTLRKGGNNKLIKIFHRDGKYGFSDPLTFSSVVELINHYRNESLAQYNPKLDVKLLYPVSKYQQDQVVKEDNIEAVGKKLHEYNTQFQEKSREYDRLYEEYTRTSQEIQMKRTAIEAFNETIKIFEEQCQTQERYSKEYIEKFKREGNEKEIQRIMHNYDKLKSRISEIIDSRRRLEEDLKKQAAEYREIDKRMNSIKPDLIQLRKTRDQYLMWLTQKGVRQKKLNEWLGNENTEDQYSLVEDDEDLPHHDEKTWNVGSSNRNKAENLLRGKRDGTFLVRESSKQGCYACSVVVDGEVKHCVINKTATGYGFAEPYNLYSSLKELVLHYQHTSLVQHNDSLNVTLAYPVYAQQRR
T4 sequence (P48736 whole entry): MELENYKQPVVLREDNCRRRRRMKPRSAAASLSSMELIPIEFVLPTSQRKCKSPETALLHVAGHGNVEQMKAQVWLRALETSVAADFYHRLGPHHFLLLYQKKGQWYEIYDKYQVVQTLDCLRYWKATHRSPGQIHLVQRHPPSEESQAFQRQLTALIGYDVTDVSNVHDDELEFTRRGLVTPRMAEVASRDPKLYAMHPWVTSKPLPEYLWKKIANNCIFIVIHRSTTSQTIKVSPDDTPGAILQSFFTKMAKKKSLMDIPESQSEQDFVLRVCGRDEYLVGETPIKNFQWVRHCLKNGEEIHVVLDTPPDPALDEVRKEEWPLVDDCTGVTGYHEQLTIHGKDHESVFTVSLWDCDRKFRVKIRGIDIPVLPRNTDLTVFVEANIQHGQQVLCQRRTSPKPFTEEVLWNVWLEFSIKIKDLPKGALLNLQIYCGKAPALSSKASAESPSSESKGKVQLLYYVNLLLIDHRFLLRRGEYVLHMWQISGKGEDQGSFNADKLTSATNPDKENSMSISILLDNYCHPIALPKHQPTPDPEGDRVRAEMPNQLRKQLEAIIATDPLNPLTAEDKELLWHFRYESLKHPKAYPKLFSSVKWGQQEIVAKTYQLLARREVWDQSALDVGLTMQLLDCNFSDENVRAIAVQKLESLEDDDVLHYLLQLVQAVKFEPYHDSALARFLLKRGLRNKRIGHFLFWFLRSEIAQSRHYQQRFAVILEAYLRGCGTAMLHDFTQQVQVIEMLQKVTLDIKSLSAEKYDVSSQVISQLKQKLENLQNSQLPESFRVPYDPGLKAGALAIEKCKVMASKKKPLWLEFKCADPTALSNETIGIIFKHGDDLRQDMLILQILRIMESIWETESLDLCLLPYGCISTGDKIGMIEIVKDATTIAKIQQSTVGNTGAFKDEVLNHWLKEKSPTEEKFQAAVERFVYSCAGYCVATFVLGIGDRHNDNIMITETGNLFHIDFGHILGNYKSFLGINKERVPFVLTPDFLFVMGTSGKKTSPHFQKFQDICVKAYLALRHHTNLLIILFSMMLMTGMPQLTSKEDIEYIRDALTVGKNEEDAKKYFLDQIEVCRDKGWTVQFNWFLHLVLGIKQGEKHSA

Row | SMILES | dose limiting or most common side effect [1] | IC50 (mTOR; Table 4 (PI3K α inhibitors)) [nM] | IC50 (PI3K δ; Table 4 (PI3K α inhibitors)) [nM] | IC50 (PI3K β (p110β/p85α); Table 4 (PI3K α inhibitors)) [nM] | IC50 (PI3K γ (p110γ); Table 4 (PI3K α inhibitors)) [nM] | IC50 (PI3K α (p110α/p85α); Table 4 (PI3K α inhibitors)) [nM] | further results
1 | CCC1=C[C@@H]2CN(C1)Cc1c([nH]c3ccccc13)[C@@](C(=O)OC)(c1cc3c(cc1OC)N(C)[C@H]1[C@@](O)(C(=O)OC)[C@H](OC(C)=O)[C@]4(CC)C=CCN5CC[C@]31[C@@H]54)C2 (relative stereo) [vinorelbine, 3′,4′-didehydro-4′-deoxy-C′-norvincaleukoblastine [R—(R*,R*)-2,3-dihydroxybutanedioate (1:2)(salt)]] | Myelosuppression | – | – | – | – | – | –
2 | O=c1[nH]cc(F)c(=O)[nH]1 [5-fluorouracil, 5-fluoro-2,4-(1H,3H) pyrimidinedione] | Myelosuppression and mucositis | – | – | – | – | – | –
3 | CS(=O)(=O)N1CCN(C2CCN(c3cnc4ccc(-c5ccc6oc(N)nc6c5)cc4n3)CC2)CC1 [Compound 377] | – | – | – | – | – | – | IC50 (mTOR): < 10000 nM; IC50 (PI3K δ): < 10000 nM; IC50 (PI3K β (p110β/p85α)): < 10000 nM; IC50 (PI3K γ (p110γ)): < 1000 nM; IC50 (PI3K α (p110α/p85α)): < 100 nM
4 | CN1CCN([C@@H]2CCN(c3cnc4ccc(-c5ccc6oc(N)nc6c5)cc4n3)C2)CC1 [Compound 379] | – | – | – | – | – | – | IC50 (mTOR): < 10000 nM; IC50 (PI3K δ): < 10000 nM; IC50 (PI3K β (p110β/p85α)): < 1000 nM; IC50 (PI3K γ (p110γ)): > 10000 nM; IC50 (PI3K α (p110α/p85α)): < 100 nM
5 | COc1ncc(-c2ccc3ncc(C(=O)N4CCOCC4)n3c2)cc1NS(=O)(=O)c1ccc(F)cc1F [Compound 417] | – | – | – | – | – | – | IC50 (mTOR): < 1000 nM; IC50 (PI3K δ): < 100 nM; IC50 (PI3K β (p110β/p85α)): < 100 nM; IC50 (PI3K γ (p110γ)): < 100 nM; IC50 (PI3K α (p110α/p85α)): < 100 nM
6 | O=C(c1cnc2ccc(-c3cnc(Cl)c(NS(=O)(=O)c4ccc(F)cc4F)c3)cn12)N1CCOCC1 [Compound 419] | – | – | – | – | – | – | IC50 (mTOR): < 1000 nM; IC50 (PI3K δ): < 100 nM; IC50 (PI3K β (p110β/p85α)): < 100 nM; IC50 (PI3K γ (p110γ)): < 100 nM; IC50 (PI3K α (p110α/p85α)): < 100 nM
7 | NCC(=O)N1CCN(c2cnc3ccc(-c4ccc5oc(N)nc5c4)nc3c2)CC1 [Compound 588] | – | > 10000 | < 1000 | < 1000 | < 1000 | < 100 | –
8 | Nc1nc2cc(-c3ccc4ncc(N5CCN(C(=O)C6(N)CC6)CC5)nc4n3)ccc2o1 [Compound 592] | – | < 10000 | < 10000 | < 10000 | < 100 | < 100 | –
9 | CC(C)(N)C(=O)N1CCN(c2cnc3ccc(-c4ccc5oc(N)nc5c4)nc3c2)CC1 [Compound 594] | – | > 10000 | < 1000 | < 10000 | < 1000 | < 100 | –
10 | CC(C)N1CCN(c2cnc3ccc(-c4ccc5oc(N)nc5c4)nc3c2)CC1 [Compound 595] | – | > 10000 | < 1000 | < 1000 | < 1000 | < 100 | –
11 | CC(C)N1CCN(C2CN(c3cnc4ccc(-c5ccc6oc(N)nc6c5)nc4c3)C2)CC1 [Compound 623] | – | > 10000 | < 1000 | < 1000 | < 10000 | < 100 | –
12 | CN1CCN(C2CN(c3cnc4ccc(-c5ccc6oc(N)nc6c5)nc4c3)C2)CC1 [Compound 625] | – | > 10000 | < 1000 | < 1000 | < 1000 | < 100 | –
13 | CS(=O)(=O)OCCCCOS(C)(=O)=O [busulfan, 1,4-butanediol dimethanesulfonate] | Bone marrow suppression | – | – | – | – | – | –
14 | N.N.O=C([O-])C1(C(=O)[O-])CCC1.[Pt+2] [carboplatin, platinum, diamine [1,1-cyclobutane-dicarboxylate(2-)-O,O′]] | Bone marrow suppression | – | – | – | – | – | –
15 | O=C(O)CCCc1ccc(N(CCCl)CCCl)cc1 [chlorambucil] | Bone marrow suppression | – | – | – | – | – | –
16 | N.N.[Cl][Pt][Cl] [cisplatin, cis-diamminedichloroplatinum] | nephrotoxicity, which may be controlled by hydration and diuresis, and ototoxicity | – | – | – | – | – | –
17 | O.O=P1(N(CCCl)CCCl)NCCCO1 (stereo not drawn) [cyclophosphamide, 2-[bis(2-chloroethyl)amino]tetrahydro-2H-1,3,2-oxazaphosphorine 2-oxide monohydrate] | Alopecia, nausea, vomiting and leukopenia | – | – | – | – | – | –
